Data published in patent publication US20230149364A1, “METHODS OF TREATING VIRAL INFECTIONS” (EAGLE PHARMACEUTICALS, INC., priority 2020, published 2023).
≈ marks a conversion by molar mass, not a printed value. Where “and” joins values, the source holds several entries; their conditions need not be identical. Equal values may be shown once. Read-outs that look alike come from different tables or passages of the source.

Tests used:
SARS-CoV-2 = assay: Virus neutralization (VN) assay, scoring of SARS-CoV-2 cytopathic effects (CPE) in Vero E6 cells; format: cell-based

O=C1CN(/N=C/c2ccc(-c3ccc([N+](=O)[O-])cc3)o2)C(O)=N1 [dantrolene]
cell growth at Day 6 (Vero E6 cells; 50 μM dilution, Day 6 post-infection, decreased compared to lower dilutions): rebound cell growth | cytopathic effects at highest concentrations (Vero E6 cells; 50 and 100 μM, Days 2 and 4, both infected cells and uninfected controls): showed cytopathic effects | Cytotoxic effects (Vero E6 cells; African green monkey): Cytotoxic effects were only observed at the 2 highest dantrolene concentrations | cell viability of uninfected Vero E6 cells (Vero E6 cells; lower dilutions (<50 μM dantrolene), uninfected): good cell viability | CPE (SARS-CoV-2): no CPE was observed | Day 2 Read (CPE) (SARS-CoV-2): 3/3 wells had No CPE and 3/3 walls n34 > 90% CPE | Day 4 Read (CPE) (SARS-CoV-2): 3/3 wells had No CPE and 2/3 wells had > J0% CPE and 1/3 wells had > 90% CPE and 3/3 wells had > 90% CPE | Day 6 Read (CPE) (SARS-CoV-2): 3/3 wells had No CPE and 2/3 wells had > 90% CPE and 1/3 wells had > 90% CPE and 3/3 wells had > 90% CPE | Day 2 Read (CPE) (SARS-CoV-2; 50 μM dantrolene, Day 2): 3/3 wells had sparse | Day 4 Read (CPE) (SARS-CoV-2; 50 μM dantrolene, Day 4): 3/3 wells had sparse | Day 6 Read (CPE) (SARS-CoV-2; 50 μM dantrolene, Day 6, cell wraps on: 'confluency but greater than Day 4'): 3/3 wells had sparse | cytopathic effects (virus growth) (SARS-CoV-2; 20 and 40 μM dantrolene, all timepoints): No cytopathic effects | MIC (SARS-CoV-2; Severe acute respiratory syndrome coronavirus 2, 144 h, SARS-CoV-2 in Vero E6 cells, no CPE across all time points (6 days), read-out: minimum inhibitory concentration): 20 µM (≈ 6.29 µg/mL) | anti-viral activity (SARS-CoV-2; lower concentrations of 10 and 5 μM): also showed anti-viral activity
